Laboratory results from patent US10981932B2, “Macrocyclic indole derivatives” (Bayer Aktiengesellschaft, priority 2016, dated 2021).
Values joined by “and” are separate entries in the source; they are usually repeats but may differ in a detail not shown here. Equal values may be shown once. Where a name gives a salt, the structure may show the parent alone. Read-outs that look alike come from different tables or passages of the source.

Columns and labels:
MV-4-11 = assay: Anti-proliferative effect (CellTiter-Glo, 72 h), MV-4-11; type: cell-based; conditions: MV-4-11 cells, median, read-out: IC50 antiproliferation assay MV-4-11 [M] (median)
Outline: (§1)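 CellTiter-Glo luminescence readout of viability, taken on a time-zero plate at day 0 and on treated plates after 72 h incubation at 37 °C in a humidified incubator. Reagent incubation 10 min before reading.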

A2780 = assay: Anti-proliferative effect (CellTiter-Glo, 72 h), A2780; type: cell-based; conditions: A2780 cells, median, read-out: IC50 antiproliferation assay A2780 [M] (median)
Outline: as §1

MCL-1 = MCL-1 (Homo sapiens, UniProt Q07820); assay: Protein-protein interaction assay MCL-1/Noxa BH3 peptide (MCL-1 assay), TR-FRET; type: binding; conditions: MBP-MCL-1 / Noxa BH3-derived peptide, median
Outline: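 MBP-MCL-1 (1 nM final) was preincubated 10 min at 22 °C with compounds (11 concentrations, 0.1 nM–20 μM, duplicates) in Tris pH 7 buffer with NaCl, KF, Tween-20, DTT and BGG. After 1 h at 22 °C in the dark plus overnight at 4 °C, anti-MBP Eu-cryptate/streptavidin-XL665 TR-FRET was read; IC50 came from a 4-parameter fit.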

SUDHL5 [1] = assay: Induction of caspase-3/7 activity (Caspase-Glo 3/7), SUDHL5; type: cell-based; conditions: caspase-3/7 induction, SUDHL5 cells, 3 h treatment, median
Outline: (§2)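 Caspase-Glo 3/7 luminescence measured after 3 h compound exposure at 37 °C in SUDHL10 and SUDHL5 cells. EC50 values come from background-corrected signals, with curve bottom set to 1 and plateau set to maximal induction by the reference compound.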

SUDHL10 [2] = assay: Anti-proliferative effect (CellTiter-Glo, 72 h), SUDHL10; type: cell-based; conditions: SUDHL10 cells, antiproliferation, 72 h incubation, median, read-out: Antiproli SUDHL10 [M] (median)
Outline: as §1

SUDHL5 [3] = assay: Induction of cytotoxicity (CellTiter-Glo, 5 h), SUDHL5
SUDHL10 [4] = assay: Induction of caspase-3/7 activity (Caspase-Glo 3/7), SUDHL10; type: cell-based; conditions: caspase-3/7 induction, SUDHL10 cells, 3 h treatment, median
Outline: as §2

SUDHL10 [5] = assay: Induction of cytotoxicity (CellTiter-Glo, 5 h), SUDHL10
SUDHL5 [6] = assay: Anti-proliferative effect (CellTiter-Glo, 72 h), SUDHL5; type: cell-based; conditions: SUDHL5 cells, antiproliferation, median, read-out: Antiproli SUDHL5 [M] (median)
Outline: as §1

[7] = read-out: Cytotox SUDHL5 [M] (median), SUDHL5 cells, cytotoxicity induction, CellTiter-Glo, 5 h incubation, median
[8] = read-out: Cytotox SUDHL10 [M] (median), SUDHL10 cells, cytotoxicity induction, CellTiter-Glo, 5 h incubation, median
[9] = Homo sapiens, SU-DHL10, 5 h, read-out: Cytotox SUDHL10 [M] (median), SUDHL10 cells, cytotoxicity induction, CellTiter-Glo, 5 h incubation, median
[10] = Homo sapiens, SU-DHL-5, 5 h, read-out: Cytotox SUDHL5 [M] (median), SUDHL5 cells, cytotoxicity induction, CellTiter-Glo, 5 h incubation, median
[11] = Homo sapiens, SU-DHL-5, 72 h, 72 h incubation

Sequence of MCL-1 (Q07820 whole entry): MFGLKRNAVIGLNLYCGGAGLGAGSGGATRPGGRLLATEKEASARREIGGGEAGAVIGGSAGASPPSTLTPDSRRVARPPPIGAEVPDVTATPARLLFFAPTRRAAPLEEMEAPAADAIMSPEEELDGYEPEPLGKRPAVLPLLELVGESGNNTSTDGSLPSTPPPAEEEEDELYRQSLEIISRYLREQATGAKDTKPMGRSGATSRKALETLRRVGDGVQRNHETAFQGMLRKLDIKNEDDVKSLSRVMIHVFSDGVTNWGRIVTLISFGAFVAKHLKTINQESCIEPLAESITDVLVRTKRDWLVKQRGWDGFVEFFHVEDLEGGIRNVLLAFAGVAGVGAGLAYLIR

IC50 (MV-4-11; Homo sapiens, MV4-11, 72 h) | IC50 (A2780; Homo sapiens, A2780, 72 h) | IC50 (MCL-1) | EC50 (SUDHL5 [1]) | IC50 (SUDHL10 [2]) | EC50 (SUDHL10 [4]) | IC50 (SUDHL5 [6]; 72 h incubation) | IC50 (SUDHL10 [2]; Homo sapiens, SU-DHL10, 72 h) | EC50 (SUDHL10 [4]; Homo sapiens, SU-DHL10, 3 h) | EC50 (SUDHL5 [1]; Homo sapiens, SU-DHL-5, 3 h) | IC50 (SUDHL5 [6]; [11]) | IC50 (A2780) | IC50 (MV-4-11) | IC50 (SUDHL5 [6]; 72 h) | Structure (SMILES) | IC50 (SUDHL5 [3]; [7]) | IC50 (SUDHL10 [5]; [8]) | IC50 (SUDHL10 [5]; [9]) | IC50 (SUDHL5 [3]; [10]) | IC50 (SUDHL5 [3]; read-out: Cytotox SUDHL5 [M] (median), SUDHL5 cells, cytotoxicity induction, CellTiter-Glo, 5 h, median) | IC50 (SUDHL10 [5]; read-out: Cytotox SUDHL10 [M] (median), SUDHL10 cells, cytotoxicity induction, CellTiter-Glo, 5 h, median)
4.83e-06 M | 1.53e-05 M | 0.00161 µM | 1.39 µM | 2.19e-06 M | 2.85 µM | 1.45e-06 M | – | – | – | – | – | – | – | CCCc1nn(C)c2c1-c1c(C)ccc3c(CCCOc4cccc5ccccc45)c(C(=O)O)n(c13)CCCN(C)C2 (single isomer, unassigned; enantiomer 1) [Example 196, 7,9,12-trimethyl-1-[3-(naphthalen-1-yloxy)propyl]-11-propyl-4,5,6,7,8,9-hexahydropyrazolo[3′,4′:7,8][1,5]diazecino[9,10,1-hi]indole-2-carboxylic acid-N-ethylethanamine Salt (Enantiomer 1)] | 1.36e-06 M | 2.92e-06 M | – | – | – | –
1.45e-06 M | 2.79e-05 M | 0.00136 µM | 1.34 µM | – | 3.97 µM | 2.32e-06 M | 7.13e-06 M | – | – | – | – | – | – | Cc1nn(CCN2CCOCC2)c2c1-c1cccc3c(CCCOc4cccc5ccccc45)c(C(=O)O)n(c13)CCCCOC2 (single isomer, unassigned; enantiomer 1) [Example 096, 3-methyl-1-[2-(morpholin-4-yl)ethyl]-7-[3-(naphthalen-1-yloxy)propyl]-1,10,11,1213,15-hexahydropyrazolo[4′,3′:9,10][1,6]oxazacycloundecino[8,7,6-hi]indole-8-carboxylic acid-N-ethylethanamine Salt (Enantiomer 1)] | 1.09e-06 M | 3.7e-06 M | – | – | – | –
1.33e-05 M | > 3.3e-05 M | 0.0124 µM | 8.06 µM | 1.72e-05 M | – | 1.24e-05 M | – | 26 µM | – | – | – | – | – | Cc1nn(CC(F)(F)F)c2c1-c1cccc3c(CCCOc4cccc5ccccc45)c(C(=O)O)n(c13)CCCCOC2 (single isomer, unassigned; enantiomer 1) [Example 110, 3-methyl-7-[3-(naphthalen-1-yloxy)propyl]-1-(2,2,2-trifluoroethyl)-1,10,11,12,13,15-hexahydropyrazolo[4′,3′:9,10][1,6]oxazacycloundecino[8,7,6-hi]indole-8-carboxylic acid-N-ethylethanamine Salt (Enantiomer 1)] | 6.54e-06 M | – | 2.37e-05 M | – | – | –
1.2e-05 M | 1.22e-05 M | 0.00756 µM | – | – | – | – | 7.32e-06 M | 10.3 µM | 4.07 µM | 5.85e-06 M | – | – | – | Cc1ccc2c(C(C)CCOc3cccc4cc(F)ccc34)c(C(=O)O)n3c2c1-c1c(nn(C)c1C)COCCCC3 (racemic) [Example 276, 7-{4-[(6-fluoronaphthalen-1-yl)oxy]butan-2-yl}-2,3,4-trimethyl-2,10,11,12,13,15-hexahydropyrazolo[4′3′:9,10][1,6]oxazacycloundecino[8,7,6-hi]indole-8-carboxylic Acid] | – | – | 1.03e-05 M | 5.23e-06 M | – | –
1.04e-05 M | – | 0.0037 µM | 4.79 µM | 6.31e-06 M | 17.2 µM | 8.78e-06 M | – | – | – | – | 3.16e-05 M and > 3.3e-05 M | – | – | O=C(O)c1c(CCCOc2cccc3ccccc23)c2cccc3c2n1CCCCOCc1nn2c(c1-3)COCC2 (single isomer, unassigned) [Example 252, 1-[3-(naphthalen-1-yloxy)propyl]-4,5,6,7,12,13-hexahydro-9H,15H-[1,4]oxazino[4″,3″:1′,5′]pyrazolo[4′,3′:9,10][1,6]oxazacycloundecino[8,7,6-hi]indole-2-carboxylic acid-N-ethylethanamine Salt] | 5.17e-06 M | 2.09e-05 M | – | – | – | –
1.2e-05 M | – | 0.0308 µM | 25 µM | 2.02e-05 M | > 33 µM | 1.44e-05 M | – | – | – | – | 1.21e-05 M | – | – | CCc1c2c(nn1C)CN(C)CCCn1c(C(=O)O)c(CCCOc3cccc4ccccc34)c3cccc-2c31 (single isomer, unassigned; enantiomer 2) [Example 143, 11-ethyl-7,10-dimethyl-1-[3-(1-naphthyloxy)propyl]-4,5,6,7,8,10-hexahydropyrazolo[3′,4′:7,8][1,5]diazecino[9,10,1-hi]indole-2-carboxylic acid-N-ethylethanamine Salt (Enantiomer 2)] | 1.36e-05 M | 2.69e-05 M | – | – | – | –
1.8e-05 M | 2.46e-05 M | 0.00777 µM | 5.11 µM | – | 16.1 µM | 6.23e-06 M | 8.23e-06 M | – | – | – | – | – | – | Cn1nc(CN2CC(F)(F)C2)c2c1COCCCCn1c(C(=O)O)c(CCCOc3cccc4ccccc34)c3cccc-2c31 (single isomer, unassigned; enantiomer 1) [Example 181, 3-[(3,3-difluoroazetidin-1-yl)methyl]-1-methyl-7-[3-(naphthalen-1-yloxy)propyl]-1,10,11,12,13,15-hexahydropyrazolo[4′,3′:9,10][1,6]oxazacycloundecino[8,7,6-hi]indole-8-carboxylic acid-N-ethylethanamine Salt (Enantiomer 1)] | 6.68e-06 M | – | 1.67e-05 M | – | – | –
7.59e-06 M | 2.83e-05 M | 0.00867 µM | – | – | – | – | 1.17e-05 M | 18.6 µM | 6.7 µM | 5.74e-06 M | – | – | – | O=C(O)c1c(CCCOc2cccc3ccccc23)c2cccc3c2n1CCCCOCc1nn2c(c1-3)CCCC2 (racemic) [Example 253, (rac)-1-[3-(naphthalen-1-yloxy)propyl]-4,5,6,7,12,13,14,15-octahydro-9H-pyrido[1″,2″:1′,5′]pyrazolo[4′,3′:9,10][1,6]oxazacycloundecino[8,7,6-hi]indole-2-carboxylic Acid] | – | – | 1.96e-05 M | 6.7e-06 M | – | –
1.35e-05 M | 1.9e-05 M | 0.00499 µM | – | – | – | – | – | 15.7 µM | 5.55 µM | 5.65e-06 M | – | – | – | Cc1nn(C)c2c1-c1cccc3c(CCCOc4cccc5ccccc45)c(C(=O)O)n(c13)CCCCCN(C)C2 [Example 237, (rac)-1,3,15-Trimethyl-7-[3-(naphthalen-1-yloxy)propyl]-1,10,11,12,13,14,15,16-octahydropyrazolo[4′,3′:4,5][1,7]diazacyclododecino[3,2,1-hi]indole-8-carboxylic Acid] | – | – | 1.18e-05 M | 6.6e-06 M | – | –
– | – | 0.126 µM | > 33 µM | – | > 33 µM | – | – | – | – | – | 1.33e-05 M | 1.9e-05 M | 5.16e-06 M | Cc1c2c(nn1C)COCCCCn1c(C(=O)O)c(CCCOc3cccc4cc(Cl)ccc34)c3cccc-2c31 (single isomer, unassigned) [Example 297, (−)-7-{3-[(6-chloronaphthalen-1-yl)oxy]propyl}-2,3-dimethyl-2,10,11,12,13,15-hexahydropyrazolo[4′3′:9,10][1,6]oxazacycloundecino[8,7,6-hi]indole-8-carboxylic acid-N-ethylethanamine Salt] | – | – | – | – | 2.83e-05 M | 2.77e-05 M
– | 2.15e-05 M | 0.00289 µM | 5.25 µM | – | – | – | – | 19.1 µM | – | 1.13e-05 M | – | 8.15e-06 M | – | COCCn1nc(C2CC2)c2c1COCCCCn1c(C(=O)O)c(CCCOc3cccc4c3CCCC4)c3cccc-2c31 (single isomer, unassigned; enantiomer 1) [Example 165, 3-Cyclopropyl-1-(2-methoxyethyl)-7-[3-(5,6,7,8-tetrahydronaphthalen-1-yloxy)propyl]-1,10,11,12,13,15-hexahydropyrazolo[4′,3′:9,10][1,6]oxazacycloundecino[8,7,6-hi]indole-8-carboxylic acid-N-ethylethanamine Salt (Enantiomer 1)] | 5.71e-06 M | – | 2.37e-05 M | – | – | –
